{"source": "patent US20200405697A1", "about": "“Antitumor Agent” (Taiho Pharmaceutical Co., Ltd, priority 2017, published 2020)", "data": [{"molecular_target": "T1, human RNR (histidine tagged human M1 and human M2 proteins) (Homo sapiens, UniProt P23921)", "T1 construct": "made in house; host or cells: Escherichia coli", "T1 sequence (P23921 1-792)": "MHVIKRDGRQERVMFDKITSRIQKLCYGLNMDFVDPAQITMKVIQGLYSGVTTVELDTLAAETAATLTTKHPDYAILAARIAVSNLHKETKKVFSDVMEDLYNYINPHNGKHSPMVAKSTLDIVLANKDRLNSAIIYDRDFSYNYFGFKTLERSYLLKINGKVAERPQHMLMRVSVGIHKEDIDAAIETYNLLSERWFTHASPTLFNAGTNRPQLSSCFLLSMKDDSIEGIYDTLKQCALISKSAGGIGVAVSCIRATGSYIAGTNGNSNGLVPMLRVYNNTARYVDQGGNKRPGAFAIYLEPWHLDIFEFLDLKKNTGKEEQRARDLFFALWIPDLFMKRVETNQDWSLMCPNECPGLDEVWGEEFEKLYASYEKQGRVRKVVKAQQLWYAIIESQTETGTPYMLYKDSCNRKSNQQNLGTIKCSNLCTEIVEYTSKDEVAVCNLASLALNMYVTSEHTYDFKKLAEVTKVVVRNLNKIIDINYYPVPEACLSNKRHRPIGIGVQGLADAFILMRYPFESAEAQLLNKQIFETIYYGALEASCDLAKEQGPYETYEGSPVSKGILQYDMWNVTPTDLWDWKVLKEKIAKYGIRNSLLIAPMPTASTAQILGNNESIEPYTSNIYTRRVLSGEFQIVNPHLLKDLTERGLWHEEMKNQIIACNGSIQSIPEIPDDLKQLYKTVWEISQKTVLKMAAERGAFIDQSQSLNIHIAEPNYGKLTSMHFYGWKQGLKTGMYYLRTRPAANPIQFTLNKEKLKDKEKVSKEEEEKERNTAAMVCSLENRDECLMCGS", "assay": "Human RNR inhibition effect (dCDP formation from CDP)", "format": "biochemical", "conditions": "10 μM CDP, 37° C. for 30 minutes, read-out: RNR inhibitory activity IC50", "how_it_was_run": "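His-tagged human M1 (isoform 1) and N-terminal 59-aa-truncated M2 (isoform 2), E. coli-expressed, Ni-purified, preincubated 20 min with compound (1% DMSO). Reaction with 10 μM CDP, 2 mM ATP, 0.24 mM NADPH, 6 mM DTT, 4 mM Mg acetate, 100 mM KCl, 50 mM HEPES pH 7.2, 30 min at 37° C. dCDP formed quantified by reverse-phase HPLC after heat stop.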", "units": {"IC50": "µM"}, "values": [{"compound": "Cc1ccc(F)c([C@@H](C)[C@H](NS(=O)(=O)c2ccc(Cl)c3c2OCC(=O)N3C)c2n[nH]c(=O)o2)c1C", "note": "[Example 93, 5-chloro-N-((1S,2R)-2-(6-fluoro-2,3-dimethylphenyl)-1-(5-oxo-4,5-dihydro-1,3,4-oxadiazol-2-yl)propyl)-4-methyl-3-oxo-3,4-dihydro-2H-benzo[b][1,4]oxazine-8-sulfonamide]", "IC50": 0.1}, {"compound": "Cc1ccc(F)c([C@@H](C)[C@H](NS(=O)(=O)c2ccc(Cl)c(C(=O)N3CCC4(COC4)C3)n2)c2n[nH]c(=O)o2)c1C", "note": "[Example 155, 5-chloro-N-((1S,2R)-2-(6-fluoro-2,3-dimethylphenyl)-1-(5-oxo-4,5-dihydro-1,3,4-oxadiazol-2-yl)propyl)-6-(2-oxa-6-aza-spiro[3.4]octane-6-carbonyl)pyridine-2-sulfonamide]", "IC50": 0.13}, {"compound": "Cc1c(Br)ccc(F)c1[C@@H](C)[C@H](NS(=O)(=O)c1ccc(Cl)c2c1OCCC2O)c1n[nH]c(=O)o1", "note": "(single isomer, unassigned) [Example 243B]", "IC50": 0.1}, {"compound": "Cc1ccc(F)c([C@@H](C)[C@H](NS(=O)(=O)c2cc([N+](=O)[O-])c(Cl)cc2C(N)=O)c2n[nH]c(=O)o2)c1C", "note": "[Example 262, 5-chloro-2-(N-((1S,2R)-2-(6-fluoro-2,3-dimethylphenyl)-1-(5-oxo-4,5-dihydro-1,3,4-oxadiazol-2-yl)propyl)sulfamoyl)-4-nitrobenzamide]", "IC50": 0.13}, {"compound": "Cc1ccc(F)c([C@@H](C)[C@H](NS(=O)(=O)c2c(F)cccc2F)c2n[nH]c(=O)o2)c1C", "note": "[Example 110, 2,6-difluoro-N-((1S,2R)-2-(6-fluoro-2,3-dimethylphenyl)-1-(5-oxo-4,5-dihydro-1,3,4-oxadiazol-2-yl)propyl)benzenesulfonamide]", "IC50": 0.96}, {"compound": "[2H]C([2H])([2H])C1(O)CCOc2c(S(=O)(=O)N[C@H](c3n[nH]c(=O)o3)[C@H](C)c3c(F)ccc(Br)c3C)ccc(Cl)c21", "note": "(single isomer, unassigned) [Example 226B]", "IC50": 0.07}, {"compound": "Cc1c(Cl)ccc(F)c1[C@@H](C)[C@H](NS(=O)(=O)c1ccc(Cl)c2c1OCCC2(C)N)c1n[nH]c(=O)o1", "note": "(mixture of isomers) [Example 328, 4-amino-5-chloro-N-((1S,2R)-2-(3-chloro-6-fluoro-2-methylphenyl)-1-(5-oxo-4,5-dihydro-1,3,4-oxadiazol-2-yl)propyl)-4-methylchroman-8-sulfonamide]", "IC50": 0.11}, {"compound": "Cc1ccc(F)c([C@@H](C)[C@H](NS(=O)(=O)c2ccc3c(c2)CC(=O)N3)c2n[nH]c(=O)o2)c1C", "note": "[Example 162, N-((1S,2R)-2-(6-fluoro-2,3-dimethylphenyl)-1-(5-oxo-4,5-dihydro-1,3,4-oxadiazol-2-yl)propyl)-2-oxoindoline-5-sulfonamide]", "IC50": 0.74}, {"compound": "Cc1ccc(F)c([C@@H](C)[C@H](NS(=O)(=O)c2ccc(Cl)c(C(=O)N3CCC(N)C3)n2)c2n[nH]c(=O)o2)c1C", "note": "(stereo partly drawn) [Example 283, 6-(3-aminopyrrolidine-1-carbonyl)-5-chloro-N-((1S,2R)-2-(6-fluoro-2,3-dimethylphenyl)-1-(5-oxo-4,5-dihydro-1,3,4-oxadiazol-2-yl)propyl)pyridine-2-sulfonamide]", "IC50": 0.15}, {"compound": "Cc1c(C2CC2)ccc(F)c1[C@@H](C)[C@H](NS(=O)(=O)c1ccc(Cl)cc1C(N)=O)c1n[nH]c(=O)o1", "note": "[Example 26, 5-chloro-2-(N-((1S,2R)-2-(3-cyclopropyl-6-fluoro-2-methylphenyl)-1-(5-oxo-4,5-dihydro-1,3,4-oxadiazol-2-yl)propyl)sulfamoyl)benzamide]", "IC50": 0.16}, {"compound": "Cc1ccc(F)c([C@@H](C)[C@H](NS(=O)(=O)c2cc(F)c(Br)cc2F)c2n[nH]c(=O)o2)c1C", "note": "[Example 339, 4-bromo-2,5-difluoro-N-((1S,2R)-(6-fluoro-2,3-dimethylphenyl)-1-(5-oxo-4,5-dihydro-1,3,4-oxadiazol-2-yl)propyl)benzenesulfonamide]", "IC50": 0.51}, {"compound": "COc1cc(Br)ccc1S(=O)(=O)N[C@H](c1n[nH]c(=O)o1)[C@H](C)c1cccc2c1CCC2", "note": "[Example 137, 4-bromo-N-((1S,2R)-2-(2,3-dihydro-1H-inden-4-yl)-1-(5-oxo-4,5-dihydro-1,3,4-oxadiazol-2-yl)propyl)-2-methoxybenzenesulfonamide]", "IC50": 0.59}, {"compound": "Cc1ccc(F)c([C@@H](C)[C@H](NS(=O)(=O)c2ccc(Cl)cc2-c2ccno2)c2n[nH]c(=O)o2)c1C", "note": "[Example 91, 4-chloro-N-((1S,2R)-2-(6-fluoro-2,3-dimethylphenyl)-1-(5-oxo-4,5-dihydro-1,3,4-oxadiazol-2-yl)propyl)-2-(isoxazol-5-yl)benzenesulfonamide]", "IC50": 0.23}, {"compound": "COC(=O)c1cc(Cl)c(N)cc1S(=O)(=O)N[C@H](c1n[nH]c(=O)o1)[C@H](C)c1c(F)ccc(C)c1C", "note": "[Example 272, methyl 4-amino-5-chloro-2-(N-((1S,2R)-2-(6-fluoro-2,3-dimethylphenyl)-1-(5-oxo-4,5-dihydro-1,3,4-oxadiazol-2-yl)propyl)sulfamoyl)benzoate]", "IC50": 0.66}, {"compound": "Cc1ccc(F)c([C@@H](C)[C@H](NS(=O)(=O)c2ccc(Cl)c(C(=O)N3CC4CCC(C3)O4)n2)c2n[nH]c(=O)o2)c1C", "note": "[Example 117, 6-(8-oxa-3-azabicyclo[3.2.1]octane-3-carbonyl)-5-chloro-N-((1S,2R)-2-(6-fluoro-2,3-dimethylphenyl)-1-(5-oxo-4,5-dihydro-1,3,4-oxadiazol-2-yl)propyl)pyridine-2-sulfonamide]", "IC50": 0.03}, {"compound": "Cc1cc(F)cc([C@@H](C)[C@H](NS(=O)(=O)c2ccc(Cl)cc2C(N)=O)c2n[nH]c(=O)o2)c1C", "note": "[Example 7, 15-chloro-2-(N-((1S,2R)-2-(5-fluoro-2,3-dimethylphenyl)-1-(5-oxo-4,5-dihydro-1,3,4-oxadiazol-2-yl)propyl)sulfamoyl)benzamide]", "IC50": 0.45}, {"compound": "COc1cc(Cl)ccc1S(=O)(=O)N[C@H](c1n[nH]c(=O)o1)[C@H](C)c1c(F)ccc(-c2ccc(Cl)nc2)c1C", "note": "[Example 313, 4-chloro-N-((1S,2R)-2-(3-(6-chloropyridin-3-yl)-6-fluoro-2-methylphenyl)-1-(5-oxo-4,5-dihydro-1,3,4-oxadiazol-2-yl)propyl)-2-methoxybenzenesulfonamide]", "IC50": 0.34}, {"compound": "COc1cc(Cl)ccc1S(=O)(=O)N[C@H](c1n[nH]c(=O)o1)[C@H](C)c1c(F)ccc(-c2cn(C)nc2C)c1C", "note": "[Example 317, 4-chloro-N-((1S,2R)-2-(3-(1,3-dimethyl-1H-pyrazol-4-yl)-6-fluoro-2-methylphenyl)-1-(5-oxo-4,5-dihydro-1,3,4-oxadiazol-2-yl)propyl)-2-methoxybenzenesulfonamide]", "IC50": 0.28}, {"compound": "Cc1ccc(F)c([C@@H](C)[C@H](NS(=O)(=O)c2ccc(Cl)c(S(N)(=O)=O)c2)c2n[nH]c(=O)o2)c1C", "note": "[Example 176, 4-chloro-N1-((1S,2R)-2-(6-fluoro-2,3-dimethylphenyl)-1-(5-oxo-4,5-dihydro-1,3,4-oxadiazol-2-yl)propyl)benzene-1,3-disulfonamide]", "IC50": 0.81}, {"compound": "Cc1ccc(F)c([C@@H](C)[C@H](NS(=O)(=O)c2ccc(F)c3c2OCCC3(C)O)c2n[nH]c(=O)o2)c1C", "note": "(single isomer, unassigned) [Example 224A]", "IC50": 0.09}]}]}
